# How the values were obtained:
# [1] = system: adult cat flea (Ctenocephalides felis); experiment: Dose determination: knockdown and residual effectiveness of spinosad (gelatin capsule) against adult fleas on experimentally infested cats (Example 1); type: in vivo; settings: for Geometric Mean Counts of Adult C. felis / Geometric Mean Percent Reduction of Adult C. felis Compared to Untreated Control Group: fed
# Excerpt: The “knockdown” and “residual” effectiveness of spinosad can be evaluated following oral administration at four different single dosages, compared to a non-treated control group, against the adult cat flea (Ctenocephalides felis) on experimentally infested cats. A minimum effective oral dose in cats can be evaluated based on knockdown efficacy (i.e., on Day 1 following administration) and on residual efficacy (i.e., on Day 30 following administration) against the cat flea (Ctenocephalides felis).
# Forty cats can be evaluated in a randomized complete block design with cat gender and pretreatment live flea counts used as blocking factors. Five treatment groups of four female and four male cats per group can be orally dosed on Test Day 0: Group (1) can be administered 0 mg/kg vehicle control (empty gelatin capsule); Group (2) can be administered spinosad in a gelatin capsule at a dose of 35 mg/kg body weight; Group (3) can be administered spinosad in a gelatin capsule at a dose of 40 mg/kg body weight; Group (4) can be administered spinosad in a gelatin capsule at a dose of 45 mg/kg body weight; and Group (5) can be administered spinosad in a gelatin capsule at a dose of 50 mg/kg body weight. All cats can consume canned cat food just prior to dosing to ensure they were in a fed state. Each cat can be infested with approximately 100 newly emerged, unfed adult fleas (C. felis), on Test Days −6, −1, 5, 12, 19, 28 and 35. Individual animal flea counts can be performed approximately 48-hours post-infestation using the laboratory's comb counting method on Test Days −4, 1, 7, 14, 21, 30 and 37. The Day −4 pre-treatment live flea counts can be used to allocate animals to the five treatment groups. The Day 1, 7, 14, 21, 30 and 37 flea counts can be used to evaluate the knockdown (Day 1) and residual flea efficacy in each of the treated groups compared to the vehicle (negative) control group.
# [2] = Tolerability of oral spinosad in cats (Example 1); type: in vivo, cat; settings: single oral dose 35-50 mg/kg in gelatin capsule
# [3] = Pharmacokinetics of spinosad API capsules and spinosad tablets after oral administration to cats (Example 2); settings: in vivo
# Description: The plasma concentrations and resulting pharmacokinetics of spinosad tablets when administered orally to adult cats in the fed or fasted state can be evaluated. Twenty four cats (12 male and 12 female) can be dosed with approximately 80 mg/kg spinosad, as either API in gelatin capsules or as spinosad formulated chewable tablets. Serial blood samples can be collected through 672 hours (28 days) after dose administration. […] Samples can be immediately mixed by inversion several times and stored on ice until centrifuged. The plasma can be collected, split into two approximately equal aliquots and stored frozen at approximately −70° C. until shipped for analysis, and/or analyzed by a validated LC/MS/MS assay.
# [4] = system: adult cat fleas (Ctenocephalides felis); experiment: Dose confirmation: efficacy of beef flavored spinosad tablet against fleas on experimentally infested cats (Example 3); type: in vivo; settings: beef flavored tablet 50-75 mg/kg single oral dose
# Description: The treatment effect (insecticidal efficacy) of a beef flavored spinosad tablet when administered orally at a dose of 50-75 mg/kg against fleas (Ctenocephalides felis) on experimentally infested cats can be evaluated at one day post-administration and for the post-treatment prevention effect (residual efficacy) on Days 7, 14, 21 and 28.
# In total, twenty-two (22) cats can be acclimatized for the study and from these, 17 can be selected based on pre-treatment weight and flea retention counts to be randomized into either a treated or control group. Nine cats can be assigned to the control group and eight cats can be assigned to the treatment group based on flea retention counts from Day −5. Cats in the treated group can be dosed on Day 0 with the intended final formulation, a beef flavored tablet containing spinosad at a dose rate of 50-75 mg/kg spinosad/body weight, while the cats in the control group can be dosed with a vehicle control tablet.
# Each cat can be infested with approximately 100 fleas on Days −1, 7, 14, 21 and 28 and then combed and the fleas counted on Days 1, 9, 16, 23 and 30 respectively.
# Seventeen cats were randomized based on pre-treatment flea infestation counts into either a treated or control group. Eight cats were dosed on Day 0 with a beef flavored tablet containing spinosad with an overall dose range of 51.47 to 76.06 mg/kg spinosad body weight. The other nine cats were dosed with a vehicle control tablet.
# [5] = single oral dose 35 mg/kg in gelatin capsule, Day 7 post treatment
# [6] = single oral dose 35 mg/kg in gelatin capsule, Day 14 post treatment
# [7] = single oral dose 35 mg/kg in gelatin capsule, Day 21 post treatment
# [8] = single oral dose 35 mg/kg in gelatin capsule, Day 37 post treatment
# [9] = single oral dose 40 mg/kg in gelatin capsule, Day 7 post treatment
# [10] = single oral dose 40 mg/kg in gelatin capsule, Day 14 post treatment
# [11] = single oral dose 40 mg/kg in gelatin capsule, Day 21 post treatment
# [12] = single oral dose 40 mg/kg in gelatin capsule, Day 30 post treatment
# [13] = single oral dose 40 mg/kg in gelatin capsule, Day 37 post treatment
# [14] = single oral dose 45 mg/kg in gelatin capsule, Day 7 post treatment
# [15] = single oral dose 45 mg/kg in gelatin capsule, Day 14 post treatment
# [16] = single oral dose 45 mg/kg in gelatin capsule, Day 21 post treatment
# [17] = single oral dose 45 mg/kg in gelatin capsule, Day 37 post treatment
# [18] = single oral dose 50 mg/kg in gelatin capsule, Day 7 post treatment
# [19] = single oral dose 50 mg/kg in gelatin capsule, Day 14 post treatment
# [20] = single oral dose 50 mg/kg in gelatin capsule, Day 21 post treatment
# [21] = single oral dose 50 mg/kg in gelatin capsule, Day 30 post treatment
# [22] = single oral dose 50 mg/kg in gelatin capsule, Day 37 post treatment
substance,measurement,setting,value
spinosad,fleas at each comb count,"[1]; 50 mg/kg oral, up through Day 21",zero
same,post-treatment residual flea efficacy (geometric means),"[1]; all four spinosad groups (35, 40, 45, 50 mg/kg oral), up to and including Day 21 post-treatment",> 90%
same,Geometric Mean Counts of Adult C. felis,"[1]; single oral dose 35 mg/kg in gelatin capsule, Day 1 post treatment",(0.0)
same,Geometric Mean Percent Reduction of Adult C. felis Compared to Untreated Control Group,"[1]; single oral dose 35 mg/kg in gelatin capsule, Day 1 post treatment, 35 mg/kg",100%
same,Geometric Mean Counts of Adult C. felis,[1]; [5],(0.0)
same,Geometric Mean Percent Reduction of Adult C. felis Compared to Untreated Control Group,[1]; [5],100.00%
same,Geometric Mean Counts of Adult C. felis,[1]; [6],(0.2)
same,Geometric Mean Percent Reduction of Adult C. felis Compared to Untreated Control Group,[1]; [6],99.74%
same,Geometric Mean Counts of Adult C. felis,[1]; [7],(5.4)
same,Geometric Mean Percent Reduction of Adult C. felis Compared to Untreated Control Group,[1]; [7],92.94%
same,Geometric Mean Counts of Adult C. felis,"[1]; single oral dose 35 mg/kg in gelatin capsule, Day 30 post treatment",(11.8)
same,Geometric Mean Counts of Adult C. felis,[1]; [8],(32.4)
same,Geometric Mean Percent Reduction of Adult C. felis Compared to Untreated Control Group,[1]; [8],52.20%
same,Geometric Mean Counts of Adult C. felis,"[1]; single oral dose 40 mg/kg in gelatin capsule, Day 1 post treatment",(0.0)
same,Geometric Mean Percent Reduction of Adult C. felis Compared to Untreated Control Group,"[1]; single oral dose 40 mg/kg in gelatin capsule, Day 1 post treatment, 40 mg/kg",100%
same,Geometric Mean Counts of Adult C. felis,[1]; [9],(0.0)
same,Geometric Mean Percent Reduction of Adult C. felis Compared to Untreated Control Group,[1]; [9],100.00%
same,Geometric Mean Counts of Adult C. felis,[1]; [10],(0.0)
same,Geometric Mean Percent Reduction of Adult C. felis Compared to Untreated Control Group,[1]; [10],100.00%
same,Geometric Mean Counts of Adult C. felis,[1]; [11],(1.0)
same,Geometric Mean Percent Reduction of Adult C. felis Compared to Untreated Control Group,[1]; [11],98.74%
same,Geometric Mean Counts of Adult C. felis,[1]; [12],(5.2)
same,Geometric Mean Percent Reduction of Adult C. felis Compared to Untreated Control Group,[1]; [12],91.59%
same,Geometric Mean Counts of Adult C. felis,[1]; [13],(18.9)
same,Geometric Mean Percent Reduction of Adult C. felis Compared to Untreated Control Group,[1]; [13],72.18%
same,Geometric Mean Counts of Adult C. felis,"[1]; single oral dose 45 mg/kg in gelatin capsule, Day 1 post treatment",(0.0)
same,Geometric Mean Percent Reduction of Adult C. felis Compared to Untreated Control Group,"[1]; single oral dose 45 mg/kg in gelatin capsule, Day 1 post treatment, 45 mg/kg",100%
same,Geometric Mean Counts of Adult C. felis,[1]; [14],(0.4)
same,Geometric Mean Percent Reduction of Adult C. felis Compared to Untreated Control Group,[1]; [14],99.50%
same,Geometric Mean Counts of Adult C. felis,[1]; [15],(2.0)
same,Geometric Mean Percent Reduction of Adult C. felis Compared to Untreated Control Group,[1]; [15],97.22%
same,Geometric Mean Counts of Adult C. felis,[1]; [16],(4.6)
same,Geometric Mean Percent Reduction of Adult C. felis Compared to Untreated Control Group,[1]; [16],93.98%
same,Geometric Mean Counts of Adult C. felis,"[1]; single oral dose 45 mg/kg in gelatin capsule, Day 30 post treatment",(11.9)
same,Geometric Mean Counts of Adult C. felis,[1]; [17],(35.1)
same,Geometric Mean Percent Reduction of Adult C. felis Compared to Untreated Control Group,[1]; [17],48.29%
same,Geometric Mean Counts of Adult C. felis,"[1]; single oral dose 50 mg/kg in gelatin capsule, Day 1 post treatment",(0.0)
same,Geometric Mean Percent Reduction of Adult C. felis Compared to Untreated Control Group,"[1]; single oral dose 50 mg/kg in gelatin capsule, Day 1 post treatment, 50 mg/kg",100%
same,Geometric Mean Counts of Adult C. felis,[1]; [18],(0.0)
same,Geometric Mean Percent Reduction of Adult C. felis Compared to Untreated Control Group,[1]; [18],100.00%
same,Geometric Mean Counts of Adult C. felis,[1]; [19],(0.0)
same,Geometric Mean Percent Reduction of Adult C. felis Compared to Untreated Control Group,[1]; [19],100.00%
same,Geometric Mean Counts of Adult C. felis,[1]; [20],(0.0)
same,Geometric Mean Percent Reduction of Adult C. felis Compared to Untreated Control Group,[1]; [20],100.00%
same,Geometric Mean Counts of Adult C. felis,[1]; [21],(1.6)
same,Geometric Mean Percent Reduction of Adult C. felis Compared to Untreated Control Group,[1]; [21],97.33%
same,Geometric Mean Counts of Adult C. felis,[1]; [22],(8.5)
same,Geometric Mean Percent Reduction of Adult C. felis Compared to Untreated Control Group,[1]; [22],87.50%
same,tolerability,[2],well tolerated
same,AUC0-∞ in fed animals relative to fasted animals,[3],5-10 times
same,Cmax in fed animals relative to fasted animals,[3],4-7 times
same,Geometric Mean Percent Reduction of Adult C. felis Compared to Untreated Control Group,[4]; Day 1 post treatment,100.0%
same,Geometric Mean Percent Reduction of Adult C. felis Compared to Untreated Control Group,"[4]; Day 7 (day of infestation, counted Day 9)",100.0%
same,Geometric Mean Percent Reduction of Adult C. felis Compared to Untreated Control Group,"[4]; Day 14 (day of infestation, counted Day 16)",99.69%
same,Geometric Mean Percent Reduction of Adult C. felis Compared to Untreated Control Group,"[4]; Day 21 (day of infestation, counted Day 23)",99.45%
same,Geometric Mean Percent Reduction of Adult C. felis Compared to Untreated Control Group,"[4]; Day 28 (day of infestation, counted Day 30)",98.05%

# — US9220719B2, “Single dose oral formulations and methods for treatment of cats with ectoparasiticidal spinosad” (priority 2012, dated 2015)
